Legend:
Artemia salina = assay: Brine shrimp lethality; type: in vivo; details: for % mortality / dead / live: 10 nauplii, 24 hrs
blaCTX-M15 = blaCTX-M15 (Escherichia coli O25b:H4, UniProt A0A5R8T042); assay: Beta-lactamase inhibition assay; type: biochemical, Salmonella typhi; details: for BL inhibitory activity: nitrocefin, 490 nm
Sequence of blaCTX-M15 (A0A5R8T042 29-291): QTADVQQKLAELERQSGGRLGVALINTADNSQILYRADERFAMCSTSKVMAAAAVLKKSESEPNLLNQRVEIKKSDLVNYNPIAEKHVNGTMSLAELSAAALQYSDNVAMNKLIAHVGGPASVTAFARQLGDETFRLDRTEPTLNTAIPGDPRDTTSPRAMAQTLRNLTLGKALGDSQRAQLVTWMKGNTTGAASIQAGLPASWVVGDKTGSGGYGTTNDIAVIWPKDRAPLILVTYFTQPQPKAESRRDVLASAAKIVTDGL

`COc1cccc2c1C(=O)c1c(O)c3c(c(O)c1C2=O)C[C@@](O)(C(=O)CO)C[C@@H]3O[C@H]1C[C@H](N)[C@H](O)[C@H](C)O1` [Doxorubicin] was tested, and the “% mortality” value (Artemia salina; 25 μg/ml) was 10%, the dead (Artemia salina; 25 μg/ml) was 1 and the live (Artemia salina; 25 μg/ml) was 9. For the same compound, the “% mortality” value (Artemia salina; 50 μg/ml) was 20%, the dead (Artemia salina; 50 μg/ml) was 2 and the live (Artemia salina; 50 μg/ml) was 8. For the same compound, the “% mortality” value (Artemia salina; 75 μg/ml) was 20%, the dead (Artemia salina; 75 μg/ml) was 2 and the live (Artemia salina; 75 μg/ml) was 8. The “% mortality” value (Artemia salina; 100 μg/ml) was 30%, the dead (Artemia salina; 100 μg/ml) was 3 and the live (Artemia salina; 100 μg/ml) was 7. The LD50 (Artemia salina; brine shrimp, tested 25-100 μg/ml) was 187 µg/mL.

In the case of `O=C(O)[C@H]1/C(=C/CO)O[C@@H]2CC(=O)N21` [abcam Clavulanic acid, Clavulanic acid], the Ki (blaCTX-M15) is reported as 38.9 µM, the BL inhibitory activity (blaCTX-M15; concentration 0.03 ug/ml) is reported as 0.9345 and the BL inhibitory activity (blaCTX-M15; concentration 0.09 ug/ml) is reported as 0.8498. It also gave a BL inhibitory activity (blaCTX-M15; concentration 1 ug/ml) of 0.753, a BL inhibitory activity (blaCTX-M15; concentration 5 ug/ml) of 0.623 and a BL inhibitory activity (blaCTX-M15; concentration 10 ug/ml) of 0.53. For the same compound, the BL inhibitory activity (blaCTX-M15; concentration 50 ug/ml) was 0.239, the BL inhibitory activity (blaCTX-M15; concentration 100 ug/ml) was 0.09 and the BL inhibitory activity (blaCTX-M15; concentration 150 ug/ml) was 0.02. The BL inhibitory activity (blaCTX-M15; concentration 200 ug/ml) was 0.015.
